Measurements taken from patent publication US11807907B2, “Method for diagnosing and treating subjects having single nucleotide polymorphisms in chromosome 2, 2:107,510,000-107,540,000 locus” (NEURIM PHARMACEUTICALS (1991) LTD., priority 2021, dated 2023).
Marks after values point to notes of the source that are not given here.

Experiments:
[1] = tested on: patients with early symptomatic Alzheimer's disease; assay: Randomized, placebo controlled study of piromelatine in patients with early symptomatic Alzheimer's disease (cNTB, ADAS-Cog14, NPI, PSQI), analysed by 2:107,510,000-107,540,000 locus polymorphism carrier status; format: in vivo, human; parameters: key to Improvement, cNTB / Improvement, PSQI: ns = non-significant effect; deter = deterioration compared to placebo
Procedure: (§1) DNA extraction and SNP genotyping were performed as follows: For 107 patients, whole blood was collected at the time of enrollment, and genomic DNA was extracted from peripheral lymphocytes using a commercial kit. Variant genotyping of a combined Whole Genome and Whole Exome sequencing, was performed. The detection of variants associated with the response of the treatment was performed through a genome wide association study (GWAS) analysis (which is a known case-control paradigm). […] The general case-control allelic test was performed through a Cochran-Armitage trend test. […] The stratification was assessed by a complete-linkage hierarchical clustering using the pairwise population concordance as a constraint. The SNP calling was done on the aligned BAM files using DRAGEN: support.illumina.com/help/DRAGEN_Germline_OLH_1000000083701/Content/Source/Informatics/Apps/DRAGENGermlineSmallVarCaller_appDRAG.htm and filter SNPs using VQSR: gatk.broadinstitute.org/hc/en-us/articles/360035531612-Variant-Quality-Score-Recalibration-VQSR.
To further explore the relationship between these paradoxical responses and other variables in the study, changes in ADAS-Cog14 and relationships with the other variables for the intermediate dose (20 mg) of piromelatine were analyzed (Table 2). […] Moreover, in this trial, 39% of patients treated with the 20 mg piromelatine that were not carriers of the 2:107,510,000-107,540,000 locus polymorphism improved (decreased)>4 points in the ADAS-Cog14 and thus were considered “responders (beneficial response)” vs. only 8% of the patients treated with the 20 mg piromelatine that were carriers of the 2:107,510,000-107,540,000 locus polymorphism (Table 2).
To further explore the relationship between these paradoxical responses and other variables in the study, changes in cNTB, ADAS-Cog14 and PSQI for the low dose (5 mg) of piromelatine were analyzed (Table 3). […] However, only carriers of a 2:107,510,000-107,540,000 locus polymorphism improved on the computerized Neuropsychological Test Battery (cNTB) upon treatment with the 5 mg piromelatine dose and the main performance domains being the episodic memory domain composite score and attention domain composite score.

5-HT-1b receptor = biological target: T1, 5-HT-1b receptor (Rattus norvegicus, UniProt P28564); assay: 5-HT receptor radioligand binding assay, 5-HT-1b; details: rat cerebral cortex, 125I CYP, read-out: IC50 (concentration causing 50% inhibition of binding)
T1 construct: stably expressing 5-HT1a, 1b, 1d and 2c receptors cells (HEK-293, rat cerebral cortex, CHO and HEK-293, respectively); from tissue; host or cells: rat cerebral cortex
T1 sequence (P28564 whole entry): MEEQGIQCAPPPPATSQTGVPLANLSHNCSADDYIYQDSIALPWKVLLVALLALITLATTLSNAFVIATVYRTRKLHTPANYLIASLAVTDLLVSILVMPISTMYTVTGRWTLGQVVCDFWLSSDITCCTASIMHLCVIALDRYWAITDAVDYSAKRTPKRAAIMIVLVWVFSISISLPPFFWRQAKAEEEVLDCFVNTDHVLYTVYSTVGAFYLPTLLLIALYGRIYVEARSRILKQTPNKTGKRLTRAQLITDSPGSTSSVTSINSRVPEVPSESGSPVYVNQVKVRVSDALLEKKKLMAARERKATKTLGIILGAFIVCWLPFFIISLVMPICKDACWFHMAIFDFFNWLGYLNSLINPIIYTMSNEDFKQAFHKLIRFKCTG
Procedure: (§2) For receptor binding assays, stably expressing 5-HT1a, 1b, 1d and 2c receptors cells (HEK-293, rat cerebral cortex, CHO and HEK-293, respectively) were incubated with 0.3 or 1 nM of their respective radioligand (^3H—OH-DPAT, ^125I CYP, ^3H serotonin and ^3H-mesulergine) alone or in the presence of 1 nM to 10 μM of piromelatine. The bound radioligand was assessed. Non-specific binding was evaluated under the reaction contained with 8-OH-PTA, serotonin and RS-10221 (8-[5-(2,4-Dimethoxy-5-(4-trifluoromethylphenylsulphonamido)phenyl-5-oxopentyl]-1,3,8-triazaspiro[4.5]decane-2,4-dione hydrochloride).

5-HT-1d receptor = biological target: T2, 5-HT-1d receptor (Rattus norvegicus, UniProt P28565); assay: 5-HT receptor radioligand binding assay, 5-HT-1d; details: CHO cells, 3H serotonin, read-out: IC50 (concentration causing 50% inhibition of binding)
T2 construct: expressed in transfected cells; host or cells: CHO
T2 sequence (P28565 whole entry): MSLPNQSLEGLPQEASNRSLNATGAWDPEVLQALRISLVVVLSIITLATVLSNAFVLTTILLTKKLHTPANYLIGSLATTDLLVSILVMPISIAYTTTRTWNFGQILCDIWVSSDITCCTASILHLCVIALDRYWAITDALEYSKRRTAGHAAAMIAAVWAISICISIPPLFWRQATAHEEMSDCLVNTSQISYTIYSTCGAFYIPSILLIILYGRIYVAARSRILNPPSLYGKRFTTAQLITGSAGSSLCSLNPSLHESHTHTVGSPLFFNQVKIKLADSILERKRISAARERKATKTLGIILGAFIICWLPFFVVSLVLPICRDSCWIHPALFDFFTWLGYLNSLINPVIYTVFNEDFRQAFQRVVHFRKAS
Procedure: as §2

5-HT-2a receptor = 5-HT-2a receptor (Homo sapiens, UniProt P28223); assay: 5-HT receptor binding, 5-HT-2a; details: read-out: IC50 (concentration causing 50% inhibition of binding)
Chain of 5-HT-2a receptor (P28223 whole entry): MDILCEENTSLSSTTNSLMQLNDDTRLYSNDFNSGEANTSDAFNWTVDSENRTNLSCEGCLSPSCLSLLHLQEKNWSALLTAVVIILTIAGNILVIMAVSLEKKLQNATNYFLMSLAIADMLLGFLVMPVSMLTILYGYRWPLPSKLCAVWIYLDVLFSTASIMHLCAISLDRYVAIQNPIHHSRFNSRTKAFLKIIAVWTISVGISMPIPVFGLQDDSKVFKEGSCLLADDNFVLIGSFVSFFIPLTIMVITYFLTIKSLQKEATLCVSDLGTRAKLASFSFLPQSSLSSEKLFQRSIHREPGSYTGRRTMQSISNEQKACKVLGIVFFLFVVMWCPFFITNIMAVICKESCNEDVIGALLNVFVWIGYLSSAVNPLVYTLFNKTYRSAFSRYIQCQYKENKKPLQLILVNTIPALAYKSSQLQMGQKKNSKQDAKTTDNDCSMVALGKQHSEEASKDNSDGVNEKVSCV

5-HT-2c receptor = biological target: T3, 5-HT-2c receptor (Homo sapiens, UniProt P28335); assay: 5-HT receptor radioligand binding assay, 5-HT-2c; details: HEK-293 cells, 3H-mesulergine, read-out: IC50 (concentration causing 50% inhibition of binding)
T3 construct: expressed in transfected cells; host or cells: HEK-293
T3 sequence (P28335 33-458): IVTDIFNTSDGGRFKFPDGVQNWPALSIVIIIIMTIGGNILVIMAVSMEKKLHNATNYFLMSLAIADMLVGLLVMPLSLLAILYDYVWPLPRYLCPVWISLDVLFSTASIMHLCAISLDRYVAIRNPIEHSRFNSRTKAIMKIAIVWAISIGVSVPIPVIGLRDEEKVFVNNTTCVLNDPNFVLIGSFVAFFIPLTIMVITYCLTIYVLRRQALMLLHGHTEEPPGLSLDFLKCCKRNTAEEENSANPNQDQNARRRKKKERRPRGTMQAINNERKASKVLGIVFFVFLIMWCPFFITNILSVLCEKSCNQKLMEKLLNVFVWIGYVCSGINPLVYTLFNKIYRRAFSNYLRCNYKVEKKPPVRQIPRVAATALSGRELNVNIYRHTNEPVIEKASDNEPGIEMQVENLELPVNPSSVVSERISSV
Procedure: as §2

5-HT-4 receptor = 5-HT-4 receptor (Homo sapiens, UniProt Q13639); assay: 5-HT receptor binding, 5-HT-4; details: read-out: IC50 (concentration causing 50% inhibition of binding)
Chain of 5-HT-4 receptor (Q13639 whole entry): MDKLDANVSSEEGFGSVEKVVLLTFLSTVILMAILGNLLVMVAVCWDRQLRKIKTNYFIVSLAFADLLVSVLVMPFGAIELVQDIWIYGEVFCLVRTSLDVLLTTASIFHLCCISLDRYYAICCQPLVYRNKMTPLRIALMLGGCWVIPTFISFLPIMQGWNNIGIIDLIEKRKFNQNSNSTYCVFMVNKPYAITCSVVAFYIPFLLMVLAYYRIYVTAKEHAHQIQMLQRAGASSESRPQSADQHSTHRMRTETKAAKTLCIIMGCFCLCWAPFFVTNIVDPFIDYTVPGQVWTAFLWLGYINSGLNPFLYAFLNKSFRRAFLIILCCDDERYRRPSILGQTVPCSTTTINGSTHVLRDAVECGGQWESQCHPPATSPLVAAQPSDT

5-HT-6 receptor = 5-HT-6 receptor (Homo sapiens, UniProt P50406); assay: 5-HT receptor binding, 5-HT-6; details: read-out: IC50 (concentration causing 50% inhibition of binding)
Chain of 5-HT-6 receptor (P50406 whole entry): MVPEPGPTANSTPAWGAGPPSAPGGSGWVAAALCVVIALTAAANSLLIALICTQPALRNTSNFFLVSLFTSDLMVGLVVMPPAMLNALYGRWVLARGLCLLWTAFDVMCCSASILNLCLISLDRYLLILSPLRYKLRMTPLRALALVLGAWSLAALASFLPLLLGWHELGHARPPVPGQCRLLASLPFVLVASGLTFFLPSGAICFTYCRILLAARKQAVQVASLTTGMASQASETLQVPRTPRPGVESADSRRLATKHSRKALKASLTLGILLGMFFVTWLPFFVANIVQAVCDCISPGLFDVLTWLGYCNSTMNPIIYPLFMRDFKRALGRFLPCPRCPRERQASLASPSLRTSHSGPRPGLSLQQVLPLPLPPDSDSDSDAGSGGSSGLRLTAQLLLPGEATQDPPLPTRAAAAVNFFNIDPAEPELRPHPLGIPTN

5-HT-7 receptor = 5-HT-7 receptor (Homo sapiens, UniProt P34969); assay: 5-HT receptor binding, 5-HT-7; details: read-out: IC50 (concentration causing 50% inhibition of binding)
Chain of 5-HT-7 receptor (P34969 whole entry): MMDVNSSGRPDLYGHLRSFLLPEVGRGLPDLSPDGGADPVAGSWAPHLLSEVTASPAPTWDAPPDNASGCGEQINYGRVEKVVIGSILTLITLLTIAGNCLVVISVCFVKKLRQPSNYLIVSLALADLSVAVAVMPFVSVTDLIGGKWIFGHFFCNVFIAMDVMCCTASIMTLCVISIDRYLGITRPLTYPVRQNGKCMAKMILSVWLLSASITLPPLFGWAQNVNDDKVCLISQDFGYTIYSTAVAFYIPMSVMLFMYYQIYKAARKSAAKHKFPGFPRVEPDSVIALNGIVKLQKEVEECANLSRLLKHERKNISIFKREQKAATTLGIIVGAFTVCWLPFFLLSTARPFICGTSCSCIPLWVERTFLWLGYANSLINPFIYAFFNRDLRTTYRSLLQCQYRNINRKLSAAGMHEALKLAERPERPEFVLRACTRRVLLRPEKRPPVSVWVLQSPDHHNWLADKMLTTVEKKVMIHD

5HT1a [2] = biological target: T4, 5HT1a (Homo sapiens, UniProt P08908); assay: Functional assay (HTRF, cAMP or IP1), 5HT1a; format: cell-based
T4 sequence (P08908 1-422): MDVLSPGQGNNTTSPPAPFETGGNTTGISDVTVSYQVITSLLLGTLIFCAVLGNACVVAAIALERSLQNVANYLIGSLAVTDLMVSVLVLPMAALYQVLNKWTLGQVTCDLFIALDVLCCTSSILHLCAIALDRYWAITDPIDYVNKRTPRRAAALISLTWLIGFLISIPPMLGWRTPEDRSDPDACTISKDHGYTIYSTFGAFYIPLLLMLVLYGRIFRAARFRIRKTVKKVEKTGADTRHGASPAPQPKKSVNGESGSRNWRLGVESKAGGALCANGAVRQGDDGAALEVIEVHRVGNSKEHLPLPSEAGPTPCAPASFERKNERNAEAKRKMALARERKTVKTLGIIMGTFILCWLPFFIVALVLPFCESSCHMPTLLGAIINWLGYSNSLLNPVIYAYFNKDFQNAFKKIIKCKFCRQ
From the text: (§3) For the functional assay, Homogeneous Time Resolved Fluorescence (HTRF) was used to measure cAMP or IP1 as products of the functional agonist or antagonist binding of 5-HT1a, 2a,2b, 2c, 4e, 6, 7 to their respective ligand (8-OG-DPAT or serotonin). Cellular dielectric spectroscopy was used to measure impedance as the product of the functional agonist or antagonist binding of 5HT1b and determine their respective ligand (serotonin).

5-HT1d = 5-HT1d (Homo sapiens, UniProt P28221); assay: Functional assay, 5-HT1d; format: cell-based
Chain of 5-HT1d (P28221 whole entry, species assumed): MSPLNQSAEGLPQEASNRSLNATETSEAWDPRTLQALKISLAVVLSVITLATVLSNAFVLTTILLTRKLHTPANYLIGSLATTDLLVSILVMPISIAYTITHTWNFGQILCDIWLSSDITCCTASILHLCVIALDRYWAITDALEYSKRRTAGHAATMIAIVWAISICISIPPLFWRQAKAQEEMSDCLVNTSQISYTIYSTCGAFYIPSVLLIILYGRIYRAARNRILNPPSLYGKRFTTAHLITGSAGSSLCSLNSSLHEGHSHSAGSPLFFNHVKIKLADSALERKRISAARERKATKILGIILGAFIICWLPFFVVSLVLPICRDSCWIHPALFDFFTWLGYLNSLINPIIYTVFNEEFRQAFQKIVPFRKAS
From the text: [Worded in the source for another target; this target is reported under the same test.] as §3

5-HT1b = 5-HT1b (Homo sapiens, UniProt P28222); assay: Functional assay (cellular dielectric spectroscopy, impedance), 5-HT1b; format: cell-based
Chain of 5-HT1b (P28222 whole entry, species assumed): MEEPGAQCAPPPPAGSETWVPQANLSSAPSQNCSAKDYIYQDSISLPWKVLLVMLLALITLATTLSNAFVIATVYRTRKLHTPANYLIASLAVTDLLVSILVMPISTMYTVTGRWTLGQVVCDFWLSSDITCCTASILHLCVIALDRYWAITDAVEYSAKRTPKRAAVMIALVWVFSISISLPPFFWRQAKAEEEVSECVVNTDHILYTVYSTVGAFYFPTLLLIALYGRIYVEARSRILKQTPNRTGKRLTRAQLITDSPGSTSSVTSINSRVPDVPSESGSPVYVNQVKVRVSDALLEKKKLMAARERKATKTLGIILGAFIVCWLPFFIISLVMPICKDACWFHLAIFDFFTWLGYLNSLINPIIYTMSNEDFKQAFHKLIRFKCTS
From the text: as §3

[3] = tested on: 60 different ion channels and receptors of different neurotransmitters and hormones; assay: Full profile of binding to an additional 60 ion channels and receptors; details: 10 μM of piromelatine; none of the 60 assays
Procedure: A full profile of binding parameters to an additional 60 different ion channels and receptors of different neurotransmitters and hormones was performed (data not shown because none of the 60 receptor assays yielded a significant (>50%) inhibition by 10 μM of piromelatine).

[4] = tested on: patients with early symptomatic Alzheimer's disease; assay: Randomized, placebo controlled study of piromelatine in patients with early symptomatic Alzheimer's disease (cNTB, ADAS-Cog14, NPI, PSQI), analysed by 2:107,510,000-107,540,000 locus polymorphism carrier status; format: in vivo, human; parameters: key: ns = non-significant effect; deter = deterioration; details: carriers (N = 12); 20 mg daily for 26 weeks
Procedure: as §1, with “The SNP calling was done on the aligned BAM files using DRAGEN: support.illumina.com/help/DRAGEN_Germline_OLH_1000000083701/Content/Source/Informatics/Apps/DRAGENGermlineSmallVarCaller_appDRAG.htm and filter SNPs using VQSR: gatk.broadinstitute.org/hc/en-us/articles/360035531612-Variant-Quality-Score-Recalibration-VQSR.” left out
(§4) To further explore the relationship between these paradoxical responses and other variables in the study, changes in ADAS-Cog14 and relationships with the other variables for the intermediate dose (20 mg) of piromelatine were analyzed (Table 2). […]
(§5) To further explore the relationship between these paradoxical responses and other variables in the study, changes in cNTB, ADAS-Cog14 and PSQI for the low dose (5 mg) of piromelatine were analyzed (Table 3). […]

5HT1a [5] = biological target: T4, 5HT1a; assay: 5-HT receptor radioligand binding assay, 5-HT-1a; parameters: expressed in transfected cells; host or cells: HEK-293; details: HEK-293 cells, 3H-OH-DPAT, read-out: IC50 (concentration causing 50% inhibition of binding)
Procedure: as §2

[6] = tested on: patients with early symptomatic Alzheimer's disease; assay: Randomized, placebo controlled study of piromelatine in patients with early symptomatic Alzheimer's disease (cNTB, ADAS-Cog14, NPI, PSQI), analysed by 2:107,510,000-107,540,000 locus polymorphism carrier status; format: in vivo, human; parameters: key: ns = non-significant effect; deter = deterioration compared to placebo; details: locus polymorphism carriers; 5, 20 and 50 mg daily for 26 weeks; compared to placebo
Procedure: as §1, with “The SNP calling was done on the aligned BAM files using DRAGEN: support.illumina.com/help/DRAGEN_Germline_OLH_1000000083701/Content/Source/Informatics/Apps/DRAGENGermlineSmallVarCaller_appDRAG.htm and filter SNPs using VQSR: gatk.broadinstitute.org/hc/en-us/articles/360035531612-Variant-Quality-Score-Recalibration-VQSR.” left out
as §4, §5

[7] = carriers (N = 12), 20 mg daily for 26 weeks
[8] = carriers, 5 mg daily for 26 weeks
[9] = carriers, 5 mg daily for 26 weeks (N = 5)
[10] = locus polymorphism carriers, 5, 20 and 50 mg daily for 26 weeks, N = 19
[11] = locus polymorphism non-carriers, 5, 20 and 50 mg daily for 26 weeks, N = 59
[12] = locus polymorphism non-carriers, 5, 20 and 50 mg daily for 26 weeks, compared to placebo
[13] = non-carriers (N = 23), 20 mg daily for 26 weeks
[14] = non-carriers, 5 mg daily for 26 weeks
[15] = non-carriers, 5 mg daily for 26 weeks (N = 19)
[16] = whole study population n=352, 5, 20 and 50 mg daily for 6 months

SMILES: COc1ccc2[nH]cc(CCNC(=O)c3cc(=O)cco3)c2c1 [piromelatine, N-(2-(5-methoxy-1H-indol-3-yl)ethyl)-4-oxo-4H-pyran-2-carboxamide]
- ADAS-Cog14 % Responders (decrease ≥ 4) [1, 7]: 8%
- ADAS-Cog14 Change from baseline [1, 7]: 3.58
- Improvement, NPI [1, 7]: yes
- Improvement, PSQI [1, 7]: ns
- Improvement, cNTB [1, 7]: yes
- NPI Change from baseline [1, 7]: −3.08
- PSQI Change from baseline [1, 7]: −0.17
- cNTB Change from baseline [1, 7]: 0.44
- ADAS Cogl4, Cohen's d vs placebo > 0.2 [1, 8]: improvement
- PSQI, Cohen's d vs placebo > 0.2 [1, 8]: no improvement
- cNTB, Cohen's d vs placebo > 0.2 [1, 8]: improvement
- ADAS Cogl4 Change from Baseline [1, 9]: −6.40
- PSQI Change from baseline [1, 9]: −3.40
- cNTB Change from baseline [1, 9]: 0.28
- cNTB attention domain composite score ([1]; carriers, 20 mg dose): improved
- cNTB episodic memory domain composite score ([1]; carriers, 20 mg dose): improved
- ADAS-Cog14 Change from baseline [1, 10]: 0.63*
- cNTB Change from baseline [1, 10]: 0.38*
- Improvement, cNTB ([1]; locus polymorphism carriers, 5, 20 and 50 mg daily for 26 weeks, compared to placebo): yes
- ADAS-Cog14 Change from baseline [1, 11]: −1.07*
- cNTB Change from baseline [1, 11]: −0.04
- Improvement, ADAS-Cog14 [1, 12]: yes
- Improvement, cNTB [1, 12]: ns
- ADAS-Cog14 % Responders (decrease ≥ 4) [1, 13]: 39%
- ADAS-Cog14 Change from baseline [1, 13]: −2.91
- Improvement, ADAS-Cog14 [1, 13]: yes
- Improvement, NPI [1, 13]: yes
- Improvement, PSQI [1, 13]: yes
- Improvement, cNTB [1, 13]: ns
- NPI Change from baseline [1, 13]: −2.70
- PSQI Change from baseline [1, 13]: −2.13
- cNTB Change from baseline [1, 13]: −0.06
- ADAS Cogl4, Cohen's d vs placebo > 0.20 [1, 14]: no improvement
- PSQI, Cohen's d vs placebo > 0.20 [1, 14]: improvement
- cNTB, Cohen's d vs placebo > 0.20 [1, 14]: deterioration
- ADAS Cogl4 Change from Baseline [1, 15]: 1.11
- PSQI Change from baseline [1, 15]: −1.11
- cNTB Change from baseline [1, 15]: −0.21
- ADAS-Cog14, drug vs placebo [1, 16]: no statistically significant differences
- global composite score of the cNTB, drug vs placebo [1, 16]: no statistically significant differences
- IC50 (5-HT-1b receptor): 8 µM
- IC50 (5-HT-1d receptor): 0.46 µM
- IC50 (5-HT-2a receptor): > 10 µM
- IC50 (5-HT-2c receptor): 2.8 µM
- IC50 (5-HT-4 receptor): > 10 µM
- IC50 (5-HT-6 receptor): > 10 µM
- IC50 (5-HT-7 receptor): > 10 µM
- agonist activity in the functional assay (5HT1a [2]): moderate agonist activity
- agonist activity in the functional assay (5-HT1d): moderate agonist activity
- agonist activity in the functional assay (5-HT1b): Low agonist activity
- inhibition in the 60 receptor assays [3]: ≤ 50%
- Improvement, ADAS-Cog14 [4]: deter
- IC50 (5HT1a [5]): 0.6 µM
- Improvement, ADAS-Cog14 [6]: deter
